According to US20120225062A1 (priority 2011, published 2012):

Columns and labels:
[1] = tested on: KMS11 (human myeloma cell line); experiment: Cell Proliferation Assay (CellTiter-Glo, 3 days); assay type: cell-based; details: KMS-11, 72 h, KMS11-luc cells
Summary of the method: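 KMS11 myeloma cells, 2000 per well in IMDM with 10% FBS, exposed to compound for 3 days at 37° C. Viability read by CellTiter-Glo luminescence; EC50 derived.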

Pim 1 = Pim 1 (Homo sapiens, UniProt P11309); experiment: Pim 1 AlphaScreen assay (high ATP)
Chain of Pim 1 (P11309 whole entry): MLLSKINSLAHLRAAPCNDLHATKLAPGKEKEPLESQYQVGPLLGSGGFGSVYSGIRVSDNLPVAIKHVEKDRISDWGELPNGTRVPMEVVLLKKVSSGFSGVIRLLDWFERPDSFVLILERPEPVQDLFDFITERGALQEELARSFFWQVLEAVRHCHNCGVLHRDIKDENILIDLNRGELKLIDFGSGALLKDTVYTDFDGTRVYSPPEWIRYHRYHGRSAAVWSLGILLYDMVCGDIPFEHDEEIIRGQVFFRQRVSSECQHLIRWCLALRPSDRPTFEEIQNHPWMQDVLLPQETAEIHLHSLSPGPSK

Pim 2 = Pim 2 (Homo sapiens, UniProt Q9P1W9); experiment: Pim 2 AlphaScreen assay (high ATP)
Chain of Pim 2 (Q9P1W9 whole entry): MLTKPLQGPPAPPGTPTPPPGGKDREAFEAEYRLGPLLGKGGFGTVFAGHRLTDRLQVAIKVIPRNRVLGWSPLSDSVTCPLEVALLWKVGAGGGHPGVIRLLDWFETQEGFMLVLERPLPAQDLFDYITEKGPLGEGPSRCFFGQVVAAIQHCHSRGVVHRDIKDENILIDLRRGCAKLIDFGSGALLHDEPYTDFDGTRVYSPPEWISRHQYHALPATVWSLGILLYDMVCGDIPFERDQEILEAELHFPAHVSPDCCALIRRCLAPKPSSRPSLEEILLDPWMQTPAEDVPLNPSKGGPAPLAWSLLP

Pim 3 = Pim 3 (Homo sapiens, UniProt Q86V86); experiment: Pim 3 AlphaScreen assay (high ATP)
Experimental: The activity of Pim 1, Pim 2, & Pim 3 is measured using a homogeneous bead based system quantifying the amount of phosphorylated peptide substrate resulting from kinase-catalyzed phosphoryl transfer to a peptide substrate. Compounds to be tested are dissolved in 100% DMSO and directly distributed to a white 384-well plate at 0.25 μl per well. […] This is followed by the addition of 5 μl/well of Pim 1, Pim 2 or Pim 3 kinase in assay buffer (concentrations described below). Final assay concentrations (described below) are in 2.5% DMSO. The reactions are performed for ˜2 hours, then stopped by the addition of 10 μl of 0.75 μg/ml anti-phospho Ser/Thr antibody (Cell Signaling), 10 μg/ml Protein A AlphaScreen beads (Perkin Elmer), and 10 μg/ml streptavidin coated AlphaScreen beads in stop/detection buffer (50 mM EDTA, 95 mM Tris, pH=7.5, 0.01% Tween-20). The stopped reactions are incubated overnight in the dark. The phosphorylated peptide is detected via an oxygen anion initiated chemiluminescence/fluorescence cascade using the Envision plate reader (Perkin Elmer).

## C[C@@H]1C[C@H](N)C[C@H](c2ccncc2NC(=O)c2nc(-c3c(F)cc(OC4CCOCC4)cc3F)c(F)cc2N)C1 [Example 86, 3-amino-N-(4-((1R,3S,5S)-3-amino-5-methylcyclohexyl)pyridin-3-yl)-6-(2,6-difluoro-4-(tetrahydro-2H-pyran-4-yloxy)phenyl)-5-fluoropicolinamide]
[1]
  EC50: 17 nM
Pim 1
  IC50: 0.01 nM
Pim 2
  IC50: 0.91 nM
Pim 3
  IC50: 0.22 nM

## C[C@@H]1C[C@H](N)C[C@H](c2ccncc2NC(=O)c2cccc(-c3c(F)cc(C4(F)CCOCC4)cc3F)n2)C1 [Example 190, N-(4-((1R,3S,5S)-3-amino-5-methylcyclohexyl)pyridin-3-yl)-6-(2,6-difluoro-4-(4-fluorotetrahydro-2H-pyran-4-yl)phenyl)picolinamide]
[1]
  EC50: 402 nM
Pim 1
  IC50: 0.05 nM
Pim 2
  IC50: 3.26 nM
Pim 3
  IC50: 2.9 nM

## C[C@@H]1C[C@H](N)C[C@H](c2ccncc2NC(=O)c2ccc(F)c(-c3c(F)cc(OC(F)F)cc3F)n2)C1 [Example 65, N-(4-((1R,3S,5S)-3-amino-5-methylcyclohexyl)pyridin-3-yl)-6-(4-(difluoromethoxy)-2,6-difluorophenyl)-5-fluoropicolinamide]
[1]
  EC50: 83 nM
Pim 1
  IC50: 0.01 nM
Pim 2
  IC50: 3.84 nM
Pim 3
  IC50: 1.01 nM

## C[C@H]1CN(c2ccncc2NC(=O)c2ccc(F)c(-c3c(F)cc(C4CCS(=O)(=O)CC4)cc3F)n2)C[C@@H](N)[C@@H]1O [Example 204, N-(4-((3R,4R,5S)-3-amino-4-hydroxy-5-methylpiperidin-1-yl)pyridin-3-yl)-6-(4-(1,1-dioxidotetrahydro-2H-thiopyran-4-yl)-2,6-difluorophenyl)-5-fluoropicolinamide]
[1]
  EC50: 115 nM
Pim 1
  IC50: 0.01 nM
Pim 2
  IC50: 0.38 nM
Pim 3
  IC50: 0.14 nM

## C[C@@H]1C[C@H](N)C[C@H](c2ccncc2NC(=O)c2ccc(F)c(-c3c(F)ccc(OCCO)c3F)n2)C1 [Example 29, N-(4-((1R,3S,5S)-3-amino-5-methylcyclohexyl)pyridin-3-yl)-6-(2,6-difluoro-3-(2-hydroxyethoxy)phenyl)-5-fluoropicolinamide]
[1]
  EC50: 64 nM
Pim 1
  IC50: 0.04 nM
Pim 2
  IC50: 2.33 nM
Pim 3
  IC50: 1.08 nM

## C[C@@H]1C[C@H](N)C[C@H](c2ccncc2NC(=O)c2ccc(F)c(-c3c(F)cc(N4CCOCC4)cc3F)n2)C1 [Example 168, N-(4-((1R,3S,5S)-3-amino-5-methylcyclohexyl)pyridin-3-yl)-6-(2,6-difluoro-4-morpholinophenyl)-5-fluoropicolinamide]
[1]
  EC50: 52 nM
Pim 1
  IC50: 0.02 nM
Pim 2
  IC50: 1.36 nM
Pim 3
  IC50: 0.95 nM

## C[C@@H]1C[C@H](N)C[C@H](c2ccncc2NC(=O)c2nc(-c3c(F)cc(C4COC4)cc3F)c(F)cc2N)C1 [Example 241, 3-amino-N-(4-((1R,3S,5S)-3-amino-5-methylcyclohexyl)pyridin-3-yl)-6-(2,6-difluoro-4-(oxetan-3-yl)phenyl)-5-fluoropicolinamide]
[1]
  EC50: 30 nM
Pim 1
  IC50: 0.02 nM
Pim 2
  IC50: 1.24 nM
Pim 3
  IC50: 0.61 nM

## C[C@@H]1C[C@H](N)C[C@H](c2ccncc2NC(=O)c2ccc(F)c(-c3c(F)cc(OCC4(C#N)CCOCC4)cc3F)n2)C1 [Example 185, N-(4-((1R,3S,5S)-3-amino-5-methylcyclohexyl)pyridin-3-yl)-6-(4-((4-cyanotetrahydro-2H-pyran-4-yl)methoxy)-2,6-difluorophenyl)-5-fluoropicolinamide]
[1]
  EC50: 632 nM
Pim 1
  IC50: 0.02 nM
Pim 2
  IC50: 4.04 nM
Pim 3
  IC50: 2.44 nM

## C[C@H]1CN(c2ccncc2NC(=O)c2ccc(F)c(-c3c(F)cc(CCO)cc3F)n2)C[C@@H](N)[C@@H]1O [Example 35, N-(4-((3R,4R,5S)-3-amino-4-hydroxy-5-methylpiperidin-1-yl)pyridin-3-yl)-6-(2,6-difluoro-4-(2-hydroxyethyl)phenyl)-5-fluoropicolinamide]
[1]
  EC50: 7 nM
Pim 1
  IC50: 0.03 nM
Pim 2
  IC50: 1.09 nM
Pim 3
  IC50: 0.36 nM

## C[C@@H]1C[C@H](N)C[C@H](c2ccncc2NC(=O)c2cccc(-c3c(F)cc(C4CCOCC4)cc3F)n2)C1 [Example 192, N-(4-((1R,3S,5S)-3-amino-5-methylcyclohexyl)pyridin-3-yl)-6-(2,6-difluoro-4-(tetrahydro-2H-pyran-4-yl)phenyl)picolinamide]
[1]
  EC50: 114 nM
Pim 1
  IC50: 0.02 nM
Pim 2
  IC50: 3.49 nM
Pim 3
  IC50: 1.06 nM

## CCC(=O)c1cc(F)c(-c2nc(C(=O)Nc3cnccc3[C@@H]3C[C@H](C)C[C@H](N)C3)ccc2F)c(F)c1 [Example 43, N-(4-((1R,3S,5S)-3-amino-5-methylcyclohexyl)pyridin-3-yl)-6-(2,6-difluoro-4-propionylphenyl)-5-fluoropicolinamide]
[1]
  EC50: 43 nM
Pim 1
  IC50: 0.14 nM
Pim 2
  IC50: 15.3 nM
Pim 3
  IC50: 11.4 nM

## C[C@@H]1C[C@H](N)C[C@H](c2ccncc2NC(=O)c2ccc(F)c(-c3c(F)cc(C4CCOCC4)cc3F)n2)C1 [Example 82, N-(4-((1R,3S,5S)-3-amino-5-methylcyclohexyl)pyridin-3-yl)-6-(2,6-difluoro-4-(tetrahydro-2H-pyran-4-yl)phenyl)-5-fluoropicolinamide]
[1]
  EC50: 30 nM
Pim 1
  IC50: 0.01 nM
Pim 2
  IC50: 1.05 nM
Pim 3
  IC50: 0.52 nM

## C[C@@H]1C[C@H](N)C[C@H](c2ccncc2NC(=O)c2ccc(F)c(-c3c(F)cc([C@H](O)CO)cc3F)n2)C1 [Example 231, N-(4-((1R,3S,5S)-3-amino-5-methylcyclohexyl)pyridin-3-yl)-6-(4-((S)-1,2-dihydroxyethyl)-2,6-difluorophenyl)-5-fluoropicolinamide]
[1]
  EC50: 46 nM
Pim 1
  IC50: 0.04 nM
Pim 2
  IC50: 2.6 nM
Pim 3
  IC50: 1.53 nM

## COCCc1cc(F)c(-c2nc(C(=O)Nc3cnccc3N3C[C@@H](N)[C@H](O)[C@@H](C)C3)ccc2F)c(F)c1 [Example 109, N-(4-((3R,4R,5S)-3-amino-4-hydroxy-5-methylpiperidin-1-yl)pyridin-3-yl)-6-(2,6-difluoro-4-(2-methoxyethyl)phenyl)-5-fluoropicolinamide]
[1]
  EC50: 28 nM
Pim 1
  IC50: 0.01 nM
Pim 2
  IC50: 0.38 nM
Pim 3
  IC50: 0.14 nM

## COCCc1cc(F)c(-c2nc(C(=O)Nc3cnccc3[C@@H]3C[C@H](C)C[C@H](N)C3)ccc2F)c(F)c1 [Example 67, N-(4-((1R,3S,5S)-3-amino-5-methylcyclohexyl)pyridin-3-yl)-6-(2,6-difluoro-4-(2-methoxyethyl)phenyl)-5-fiuoropicolinamide]
[1]
  EC50: 23 nM
Pim 1
  IC50: 0.02 nM
Pim 2
  IC50: 1.69 nM
Pim 3
  IC50: 0.94 nM

## C[C@@H]1C[C@H](N)C[C@H](c2ccncc2NC(=O)c2ccc(F)c(-c3c(F)cc(OC[C@@H](O)CO)cc3F)n2)C1 [Example 3, N-(4-((1R,3S,5S)-3-amino-5-methylcyclohexyl)pyridin-3-yl)-6-(4-((S)-2,3-dihydroxypropoxy)-2,6-difluorophenyl)-5-fluoropicolinamide]
[1]
  EC50: 53 nM
Pim 1
  IC50: 0.03 nM
Pim 2
  IC50: 1.89 nM
Pim 3
  IC50: 0.55 nM

## C[C@@H]1C[C@H](N)C[C@H](c2ccncc2NC(=O)c2ccc(F)c(-c3c(F)cc(C4(C#N)CCOCC4)cc3F)n2)C1 [Example 170, N-(4-((1R,3S,5S)-3-amino-5-methylcyclohexyl)pyridin-3-yl)-6-(4-(4-cyanotetrahydro-2H-pyran-4-yl)-2,6-difluorophenyl)-5-fluoropicolinamide]
[1]
  EC50: 84 nM
Pim 1
  IC50: 0.03 nM
Pim 2
  IC50: 2.83 nM
Pim 3
  IC50: 4.54 nM

## CCOC(C)(C)c1cc(F)c(-c2nc(C(=O)Nc3cnccc3N3C[C@@H](N)[C@H](O)[C@@H](C)C3)ccc2F)c(F)c1 [Example 201, N-(4-((3R,4R,5S)-3-amino-4-hydroxy-5-methylpiperidin-1-yl)pyridin-3-yl)-6-(4-(2-ethoxypropan-2-yl)-2,6-difluorophenyl)-5-fluoropicolinamide]
[1]
  EC50: 239 nM
Pim 1
  IC50: 0.01 nM
Pim 2
  IC50: 0.98 nM
Pim 3
  IC50: 0.55 nM

## COC1(c2cc(F)c(-c3nc(C(=O)Nc4cnccc4[C@H]4C[C@@H](N)[C@H](O)[C@@H](C)C4)c(N)cc3F)c(F)c2)COC1 [Example 91, 3-amino-N-(4-((1R,3R,4R,5S)-3-amino-4-hydroxy-5-methylcyclohexyl)pyridin-3-yl)-6-(2,6-difluoro-4-(3-methoxyoxetan-3-yl)phenyl)-5-fluoropicolinamide]
[1]
  EC50: 25 nM
Pim 1
  IC50: 0.02 nM
Pim 2
  IC50: 1.44 nM
Pim 3
  IC50: 0.93 nM

## COCc1cc(F)c(-c2nc(C(=O)Nc3cnccc3[C@H]3C[C@@H](N)[C@H](O)[C@@H](C)C3)ccc2F)c(F)c1 [Example 40, N-(4-((1R,3R,4R,5S)-3-amino-4-hydroxy-5-methylcyclohexyl)pyridin-3-yl)-6-(2,6-difluoro-4-(methoxymethyl)phenyl)-5-fluoropicolinamide]
[1]
  EC50: 68 nM
Pim 1
  IC50: 0.08 nM
Pim 2
  IC50: 3.98 nM
Pim 3
  IC50: 2.63 nM

## Cc1cc(F)c(-c2nc(C(=O)Nc3cnccc3[C@H]3C[C@@H](N)[C@H](O)[C@@H](C)C3)c(N)cc2F)c(F)c1 [Example 219, 3-amino-N-(4-((1R,3R,4R,5S)-3-amino-4-hydroxy-5-methylcyclohexyl)pyridin-3-yl)-6-(2,6-difluoro-4-methylphenyl)-5-fluoropicolinamide]
[1]
  EC50: 23 nM
Pim 1
  IC50: 0.03 nM
Pim 2
  IC50: 2.01 nM
Pim 3
  IC50: 0.65 nM

## C[C@H]1CN(c2ccncc2NC(=O)c2ccc(F)c(-c3c(F)cc([C@@H](O)CO)cc3F)n2)C[C@@H](N)[C@@H]1O [Example 234, N-(4-((3R,4R,5S)-3-amino-4-hydroxy-5-methylpiperidin-1-yl)pyridin-3-yl)-6-(4-((R)-1,2-dihydroxyethyl)-2,6-difluorophenyl)-5-fluoropicolinamide]
[1]
  EC50: 9 nM
Pim 1
  IC50: 0.04 nM
Pim 2
  IC50: 1.77 nM
Pim 3
  IC50: 0.65 nM
